Laboratory results as given in US20260226068A1, “IMIDAZOTRIAZINE IL-17A MODULATORS AND USES THEREOF” (DICE ALPHA, INC., priority 2023, published 2026).

How the values were obtained:
IL-17A/A = target: T1, IL-17A/A (Homo sapiens, UniProt Q16552); experiment: IL-17A/A HEK-Blue cell assay (SEAP reporter); type: cell-based; details: HEK-Blue IL-17A reporter cells, IL17A/A 5 ng/mL, 20 hours, SEAP read at A630; read-out: HEK-Blue IL17AA (IC50 for IL-17A/A inhibition)
T1 construct: purchased Genscript Z03228
T1 sequence (Q16552 24-155): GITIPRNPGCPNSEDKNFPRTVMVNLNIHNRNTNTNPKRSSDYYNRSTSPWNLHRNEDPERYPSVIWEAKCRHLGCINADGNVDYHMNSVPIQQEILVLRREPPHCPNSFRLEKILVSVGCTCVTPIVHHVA

IL-17A/F = target: T2, IL-17A/F (Homo sapiens, UniProt Q16552+Q96PD4); experiment: IL-17A/F HEK-Blue cell assay (SEAP reporter); type: cell-based; details: HEK-Blue IL-17A reporter cells, IL17A/F 5 ng/mL, 20 hours, SEAP read at A630; read-out: HEK-Blue IL17AF (IC50 for IL-17A/F inhibition)
T2 construct: purchased R&D Systems
T2 sequence (Q16552 24-155): T1 sequence (Q16552 24-155)
T2 sequence (Q96PD4 31-163): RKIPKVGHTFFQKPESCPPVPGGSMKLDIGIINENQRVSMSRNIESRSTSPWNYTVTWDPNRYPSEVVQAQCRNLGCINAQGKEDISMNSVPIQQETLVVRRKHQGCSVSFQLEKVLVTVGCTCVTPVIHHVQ

Row | IC50 (IL-17A/A) [nM] | IC50 (IL-17A/F) [nM] | SMILES
1 | < 100 | 100 to 1000 | CCc1nonc1C(=O)N[C@H](c1cn2nc(C[C@H]3C[C@@H](C(F)(F)F)CNC3=O)c(C3CCOCC3)nc2n1)C1CCC(F)(F)CC1 [Compound 149, N-((1S)-(4,4-difluorocyclohexyl)(2-(((3R,5R)-2-oxo-5-(trifluoromethyl)piperidin-3-yl)methyl)-3-(tetrahydro-2H-pyran-4-yl)imidazo[1,2-b][1,2,4]triazin-6-yl)methyl)-4-ethyl-1,2,5-oxadiazole-3-carboxamide]
2 | < 100 | 100 to 1000 | Cn1nccc1C(=O)N[C@H](c1cn2nc(C[C@H]3C[C@@H](C(F)(F)F)CNC3=O)c(C3CCOCC3)nc2n1)C1CCC(F)(F)CC1 [Compound 150, N-((1S)-(4,4-difluorocyclohexyl)(2-(((3R,5R)-2-oxo-5-(trifluoromethyl)piperidin-3-yl)methyl)-3-(tetrahydro-2H-pyran-4-yl)imidazo[1,2-b][1,2,4]triazin-6-yl)methyl)-1-methyl-1H-pyrazole-5-carboxamide]
3 | < 100 | 100 to 1000 | CCn1nccc1C(=O)N[C@H](c1cn2nc(C[C@H]3C[C@@H](C(F)(F)F)NC3=O)c(C3CCOCC3)nc2n1)C1CCC(F)(F)CC1 [Compound 151, N—((S)-(4,4-difluorocyclohexyl)(2-(((3R,5S)-2-oxo-5-(trifluoromethyl)pyrrolidin-3-yl)methyl)-3-(tetrahydro-2H-pyran-4-yl)imidazo[1,2-b][1,2,4]triazin-6-yl)methyl)-1-ethyl-1H-pyrazole-5-carboxamide]
4 | < 100 | 100 to 1000 | CCn1nccc1C(=O)N[C@H](c1cn2nc(C[C@H]3C[C@@H](C(F)(F)F)NC3=O)c(C3CCOCC3)nc2n1)[C@H]1CC[C@H](C)CC1 [Compound 152, 1-ethyl-N—((S)-((1R,4S)-4-methylcyclohexyl)(2-(((3R,5S)-2-oxo-5-(trifluoromethyl)pyrrolidin-3-yl)methyl)-3-(tetrahydro-2H-pyran-4-yl)imidazo[1,2-b][1,2,4]triazin-6-yl)methyl)-1H-pyrazole-5-carboxamide]
5 | < 100 | > 1000 | O=C(N[C@H](c1cn2nc(C[C@H]3C[C@@H](C(F)(F)F)CNC3=O)c(C3CCOCC3)nc2n1)C1CCC(F)(F)CC1)c1ccn[nH]1 [Compound 154, N-((1S)-(4,4-difluorocyclohexyl)(2-(((3R,5R)-2-oxo-5-(trifluoromethyl)piperidin-3-yl)methyl)-3-(tetrahydro-2H-pyran-4-yl)imidazo[1,2-b][1,2,4]triazin-6-yl)methyl)-1H-pyrazole-5-carboxamide]
6 | < 100 | 100 to 1000 | CCn1nccc1C(=O)N[C@H](c1cn2nc(C[C@H]3C[C@H](C(F)(F)F)CNC3=O)c(C3CCOCC3)nc2n1)[C@H]1CC[C@H](C)CC1 [Compound 155, 1-ethyl-N-((1S)-((1r,4S)-4-methylcyclohexyl)(2-(((3R,5S)-2-oxo-5-(trifluoromethyl)piperidin-3-yl)methyl)-3-(tetrahydro-2H-pyran-4-yl)imidazo[1,2-b][1,2,4]triazin-6-yl)methyl)-1H-pyrazole-5-carboxamide]
7 | < 100 | > 1000 | CCn1nccc1C(=O)N[C@H](c1cn2nc(C[C@H]3C[C@H](C(F)(F)F)CNC3=O)c(C(C)(C)C)nc2n1)C1CCC(F)(F)CC1 [Compound 156, N-((1S)-(4,4-difluorocyclohexyl)(3-(tert-butyl)-2-(((3R,5S)-2-oxo-5-(trifluoromethyl)piperidin-3-yl)methyl)imidazo[1,2-b][1,2,4]triazin-6-yl)methyl)-1-ethyl-1H-pyrazole-5-carboxamide]
8 | < 100 | < 100 | CCn1nccc1C(=O)N[C@H](c1cn2nc(C[C@H]3C[C@@H](C(F)(F)F)CNC3=O)c(N3CCO[C@H](C)C3)nc2n1)[C@H]1CC[C@H](C)CC1 [Compound 157, 1-ethyl-N—((S)-((1r,4S)-4-methylcyclohexyl)(3-((R)-2-methylmorpholino)-2-(((3R,5R)-2-oxo-5-(trifluoromethyl)piperidin-3-yl)methyl)imidazo[1,2-b][1,2,4]triazin-6-yl)methyl)-1H-pyrazole-5-carboxamide]
9 | < 100 | 100 to 1000 | CCn1nccc1C(=O)N[C@H](c1cn2nc(C[C@H]3C[C@@H](C(F)(F)F)CNC3=O)c(N3CCO[C@@H](C)C3)nc2n1)[C@H]1CC[C@H](C)CC1 [Compound 158, 1-ethyl-N—((S)-((1r,4S)-4-methylcyclohexyl)(3-((S)-2-methylmorpholino)-2-(((3R,5R)-2-oxo-5-(trifluoromethyl)piperidin-3-yl)methyl)imidazo[1,2-b][1,2,4]triazin-6-yl)methyl)-1H-pyrazole-5-carboxamide]
10 | < 100 | > 1000 | CCn1nccc1C(=O)N[C@H](c1cn2nc(C[C@H]3C[C@H](C(F)(F)F)CNC3=O)c(C(C)(C)F)nc2n1)C1CCC(F)(F)CC1 [Compound 161, N-((1S)-(4,4-difluorocyclohexyl)(3-(2-fluoropropan-2-yl)-2-(((3R,5S)-2-oxo-5-(trifluoromethyl)piperidin-3-yl)methyl)imidazo[1,2-b][1,2,4]triazin-6-yl)methyl)-1-ethyl-1H-pyrazole-5-carboxamide]
11 | < 100 | 100 to 1000 | CCn1nccc1C(=O)N[C@H](c1cn2nc(C[C@H]3C[C@@H](C(F)(F)F)CNC3=O)c(N3CCC4(CCOCC4)C3)nc2n1)C1CCC(F)(F)CC1 [Compound 162, N—((S)-(4,4-difluorocyclohexyl)(2-(((3R,5R)-2-oxo-5-(trifluoromethyl)piperidin-3-yl)methyl)-3-(8-oxa-2-azaspiro[4.5]decan-2-yl)imidazo[1,2-b][1,2,4]triazin-6-yl)methyl)-1-ethyl-1H-pyrazole-5-carboxamide]
12 | < 100 | 100 to 1000 | CCn1nccc1C(=O)N[C@H](c1cn2nc(C[C@H]3C[C@@H](C(F)(F)F)CNC3=O)c(C3(C)CCOCC3)nc2n1)C1CCC(F)(F)CC1 [Compound 164, N-((1S)-(4,4-difluorocyclohexyl)(3-(4-methyltetrahydro-2H-pyran-4-yl)-2-(((3R,5R)-2-oxo-5-(trifluoromethyl)piperidin-3-yl)methyl)imidazo[1,2-b][1,2,4]triazin-6-yl)methyl)-1-ethyl-1H-pyrazole-5-carboxamide]
13 | < 100 | 100 to 1000 | CCc1nc2nc([C@@H](NC(=O)c3ccnn3CC)C3CCC(F)(F)CC3)cn2nc1C[C@H]1C[C@@H](C(F)(F)F)CNC1=O [Compound 167, N-((1S)-(4,4-difluorocyclohexyl)(3-ethyl-2-(((3R,5R)-2-oxo-5-(trifluoromethyl)piperidin-3-yl)methyl)imidazo[1,2-b][1,2,4]triazin-6-yl)methyl)-1-ethyl-1H-pyrazole-5-carboxamide]
14 | < 100 | 100 to 1000 | CCn1nccc1C(=O)N[C@H](c1cn2nc(C[C@H]3C[C@@H](C(F)(F)F)CNC3=O)c(CC3COC3)nc2n1)C1CCC(F)(F)CC1 [Compound 168, N-((1S)-(4,4-difluorocyclohexyl)(3-(oxetan-3-ylmethyl)-2-(((3R,5R)-2-oxo-5-(trifluoromethyl)piperidin-3-yl)methyl)imidazo[1,2-b][1,2,4]triazin-6-yl)methyl)-1-ethyl-1H-pyrazole-5-carboxamide]
15 | < 100 | > 1000 | CCn1nccc1C(=O)N[C@H](c1cn2nc(C[C@H]3C[C@@H](C(F)(F)F)CNC3=O)c(C(C)(C)C3CCOCC3)nc2n1)C1CCC(F)(F)CC1 [Compound 169, N-((1S)-(4,4-difluorocyclohexyl)(2-(((3R,5R)-2-oxo-5-(trifluoromethyl)piperidin-3-yl)methyl)-3-(2-(tetrahydro-2H-pyran-4-yl)propan-2-yl)imidazo[1,2-b][1,2,4]triazin-6-yl)methyl)-1-ethyl-1H-pyrazole-5-carboxamide]
16 | < 100 | 100 to 1000 | CCn1nccc1C(=O)N[C@H](c1cn2nc(C[C@H]3C[C@@H](C(F)(F)F)CNC3=O)c(CC3CCOC3)nc2n1)C1CCC(F)(F)CC1 (stereo partly drawn) [Compound 170, N-((1S)-(4,4-difluorocyclohexyl)(2-(((3R,5R)-2-oxo-5-(trifluoromethyl)piperidin-3-yl)methyl)-3-((tetrahydrofuran-3-yl)methyl)imidazo[1,2-b][1,2,4]triazin-6-yl)methyl)-1-ethyl-1H-pyrazole-5-carboxamide]
17 | < 100 | 100 to 1000 | CCn1nccc1C(=O)N[C@H](c1cn2nc(C[C@H]3C[C@@H](C(F)(F)F)CNC3=O)c(CC3CCCO3)nc2n1)C1CCC(F)(F)CC1 (stereo partly drawn) [Compound 171, N-((1S)-(4,4-difluorocyclohexyl)(2-(((3R,5R)-2-oxo-5-(trifluoromethyl)piperidin-3-yl)methyl)-3-((tetrahydrofuran-2-yl)methyl)imidazo[1,2-b][1,2,4]triazin-6-yl)methyl)-1-ethyl-1H-pyrazole-5-carboxamide]
18 | < 100 | 100 to 1000 | CCn1nccc1C(=O)N[C@H](c1cn2nc(C[C@H]3C[C@@H](C(F)(F)F)CNC3=O)c(CC3CCCCO3)nc2n1)C1CCC(F)(F)CC1 (stereo partly drawn) [Compound 172, N-((1S)-(4,4-difluorocyclohexyl)(2-(((3R,5R)-2-oxo-5-(trifluoromethyl)piperidin-3-yl)methyl)-3-((tetrahydro-2H-pyran-2-yl)methyl)imidazo[1,2-b][1,2,4]triazin-6-yl)methyl)-1-ethyl-1H-pyrazole-5-carboxamide]
